Values of other authors, collected in patent US20260345571A1, “DELAMANID-CONTAINING SOLID DISPERSION” (priority 2022, published 2026).

Assays:
[1] = melting point about 195 °C (decomposition)
[2] = system: Mycobacterium tuberculosis; conditions: PTL 1
atypical mycobacteria = conditions: PTL 1

## C[C@]1(COc2ccc(N3CCC(Oc4ccc(OC(F)(F)F)cc4)CC3)cc2)Cn2cc([N+](=O)[O-])nc2O1 [Delamanid, (2R)-2-methyl-6-nitro-2-[(4-{4-[4-(trifluoromethoxy)phenoxy]piperidin-1-yl}phenoxy)methyl]-2,3-dihydroimidazo[2,1-b]oxazole]
[1]
  Thermal stability: poor thermal stability
[2]
  Bactericidal action against Mycobacterium tuberculosis: excellent bactericidal action
Atypical mycobacteria
  Bactericidal action against atypical mycobacteria: excellent bactericidal action
